Assay results from patent US20080280765A1, “Method of Promoting Enlargement Growth of Agricultural and Horticultural Crops” (priority 2006, published 2008).
Structures can show the parent of a compound that is named as a salt.

Tested on: grape (species: "Italia")
Experiment: Fruit enlargement test, grape, dipping treatment of bunches
Format: in vivo
Conditions: for Mean bunch weight: 7 bunches; for One berry weight: bunch weight/total berry number
Method: Using grape (species: “Italia”) as a subject, a fruit enlargement test was done following the experimental summary described below. The test was carried out with 7 replication. Fifteen days after the full bloom, grape bunches were dipped in a chemical solution diluted to a predetermined concentration. The treated grape bunches were dried in air and grown as they were, until the bunches were harvested 43 days after the treatment to examine the bunch weight and the total number of grape berries. Five berries were randomly selected from each grape bunch of 5 replication among the test lots, for measuring the sugar level with a hand-held refracto-sugar meter manufactured by ATAGO CO., LTD (Type number: Nl). Additionally, a drug substance of gibberellin in powder (98% purity) was used as the gibberellin, while as the prohexadione calcium salt, a 27.5% formulation (the trade name: Viviful) was used, and as the trinexapac ethyl, a 25% formulation thereof (the trade name: Moddus) was used.
Material: Grape bunch “Italia” Fully bloomed on Sep. 21, 2006; starting the treatments on Oct. 6, 2006; harvested on Dec. 18, 2006: 7 bunches per one treatment lot.
C: Cont (control lot) G: dipping treatment in gibberellin (24.5 ppm) PCA: dipping treatment in prohexadione calcium salt (20 ppm, 100 ppm) GPCA: dipping treatment in gibberellin and prohexadione calcium salt (24.5 and 20 ppm, respectively or 24.5 ppm and 100 ppm, respectively) TR: dipping treatment in trinexapac ethyl (20 ppm, 100 ppm) G+TR: dipping treatment in gibberellin and trinexapac ethyl (24.5 ppm and 20 ppm, respectively or 24.5 ppm and 100 ppm, respectively).
Herein, statistical analysis was done by the Tukey's HSD test (p=0.05). Significant difference is observed between different alphabets.

Structure (SMILES)	Mean bunch weight (20 ppm)	One berry weight (20 ppm)	Mean bunch weight (100 ppm)	One berry weight (100 ppm)
CCC(=O)C1=C(O)CC(C(=O)O)CC1=O (centres unmarked) [PCA, prohexadione calcium salt]	452.9 g	7.3 g	390.0 g	6.4 g
CCOC(=O)C1CC(=O)C(=C(O)C2CC2)C(=O)C1 (centres unmarked) [TR, trinexapac ethyl]	487.1 g	7.9 g	474.3 g	6.7 g
